{
  "source": "patent US9493524B2",
  "about": "“Methods for treatment of stroke or cerebrovascular accidents using an ETB receptor agonist” (MIDWESTERN UNIVERSITY, priority 2007, dated 2016)",
  "assay_type_in_all_cases": "in vivo, Sprague-Dawley rats",
  "key": {"[1]": {"system": "urethane anesthetized rat", "test": "Cerebral blood perfusion by Laser Doppler Flowmetry", "conditions": "ET-1 0.75 μg/kg, i.v.; FIG. 5", "experimental": "(§1) Male Sprague-Dawley rats weighing 323±4 grams (g) were anesthetized with urethane (ethyl carbamate, Sigma Aldrich, St. Louis, Mo.) dissolved in isotonic saline (0.9% NaCl, Hospira, Inc., Lake Forest, Ill.). The rats were administered a dose of 0.15 g per 100 g body weight via intraperitoneal (i.p.) injection.\nCerebral Perfusion: A burr hole was drilled into the rat skull about 2 millimeters (mm) to the left of midline. Cerebrovascular perfusion was measured via a fiber optic probe (PF407) applied to the surface of the rat brain. The probe was connected to a Periflux PF2b 4000 Laser Doppler Flowmetry unit (Perimed, Stockholm, Sweden).\n(§2) The rats were randomly selected for various studies. Following surgery the rats were allowed to stabilize for 30 minutes and a 15 minutes baseline recording of all parameters (blood pressure, heart rate, cerebral blood flow, and renal blood flow) was obtained prior to the administration of the pretreatment followed by IRL-1620 (Suc-[Glu 9, Ala 11,15], American Peptide Co, Inc., Sunnyville, Calif.) or ET-1 (Ala 1,3,11,15, RBI Sigma, Natick, Mass.). BQ-788, a selective endothelin B antagonist, is the sodium salt of N-cis-2,6-dimethylpiperidinocarbonyl-L-gamma-methylleucyl-D-1-methoxycarbonyl triptophanyl-DNIe (see Proc. Natl. Acad. Sci. USA, 91, pp. 4892-4896 (1994)) BMS is BMS 182, 874, which is a selective endothelin A antagonist having a structure\n(§3) Group 1: Animals (n=4) were pretreated with saline 15 minutes (min) prior to administration of IRL-1620 (5 μg/kg, i.v.).\n(§4) Group 2: Animals (n=4) were pretreated with BMS (5 mg/kg, i.v.) 15 min prior to administration of IRL-1620 (5 μg/kg, i.v.).\n(§5) Group 3: Animals (n=4) were pretreated with BMS (15 mg/kg, i.v.) 15 min prior to administration of IRL-1620 (5 μg/kg, i.v.).\n(§6) Group 4: Animals (n=4) were pretreated with BQ788 (1 μg/kg, i.v.) 15 min prior to administration of IRL-1620 (5 μg/kg, i.v.).\n(§7) Group 1: Animals (n=4) were pretreated with saline 15 min prior to administration of ET-1 (0.75 μg/kg, i.v.).\n(§8) Group 2: Animals (n=4) were pretreated with BMS (5 mg/kg, i.v.) 15 min prior to administration of ET-1 (0.75 μg/kg, i.v.).\n(§9) Group 3: Animals (n=4) were pretreated with BMS (15 mg/kg, i.v.) 15 min prior to administration of ET-1 (0.75 μg/kg, i.v.).\n(§10) Group 4: Animals (n=4) were pretreated with BQ788 (1 μg/kg, i.v.) 15 min prior to administration of ET-1 (0.75 μg/kg, i.v.).\n(§11) Blood pressure, heart rate, cerebral blood perfusion, and renal blood perfusion all were recorded for 2 hours following the final injection. Blood gases were analyzed prior to administration of any drugs, and at 60 and 120 min following administration of IRL-1620 or ET-1. At the end of each experiment, the animals were euthanized with an overdose of urethane i.v. In the figures, all data values are presented as mean±SEM. One-sample t-tests and one-way ANOVAs were used to test the differences within and between the groups. A P value of P<0.05 was considered significant."}, "[2]": {"system": "urethane anesthetized rat", "test": "Renal blood perfusion by Laser Doppler Flowmetry", "conditions": "IRL-1620 5 μg/kg, i.v., ET-1 0.75 μg/kg, FIG. 8", "experimental": "as §1\nRenal Perfusion: The right kidney was dissected retroperitoneally. Renal perfusion was measured via a fiber optic probe (PF408) applied to the surface of the rat kidney. The probe was connected to a Periflux PF2b 4000 Laser Doppler Flowmetry unit (Perimed, Stockholm, Sweden).\nas §2, §3, §4, §5, §6, §7, §8, §9, §10, §11"}, "[3]": {"system": "urethane anesthetized rat", "test": "Blood pressure / mean arterial pressure recording", "conditions": "i.v., ET-1 0.75 μg/kg, FIG. 11; for decrease in mean arterial pressure: IRL-1620 5.0 μg/kg", "experimental": "as §1\n(§12) Blood Pressure and Heart Rate: The femoral vein and artery were cannulated. The arterial cannula was connected to a Gould P23 ID pressure transducer for recording the blood pressure on a Grass P7D polygraph through a 7PI preamplifier. The heart rate was recorded through a 7P4B Grass tachograph, triggered from blood pressure signals. Drugs were administered via the venous cannula.\nas §2, §3, §4, §5, §6, §7, §8, §9, §10, §11"}, "[4]": {"system": "urethane anesthetized rat", "test": "Heart rate recording", "conditions": "IRL-1620 5 μg/kg, i.v. after saline; ET-1 with or without pretreatment", "experimental": "as §1, §12, §2, §3, §4, §5\nGroup 4: Animals (n=4) were pretreated with BQ788 (1 μg/kg, i.v.) 15 min prior to administration of IRL-1620 (5 μg/kg, i.v.). […]\nas §11"}, "[5]": {"system": "urethane anesthetized rat", "test": "Arterial blood gas analysis", "conditions": "IRL-1620 5 μg/kg, i.v., ET-1 0.75 μg/kg", "experimental": "as §1\nBlood Gas Analysis: Arterial blood gases were monitored to determine the effects on pH, pCO2, and pO2. Blood was drawn from the arteriole cannula and analyzed using a GEM Premier 3000 unit (Instrument Laboratory, Lexington, Mass.).\nas §11"}, "[6]": {"conditions": "time 0 min (prior to any drugs)"}},
  "data": [
    {"substance": "ET-1: endothelin-1 (ET-1), a 21-amino acid peptide (ASASSLMDKEAVYFAHLDIIW)", "values": [
      {"measurement": "change in cerebral blood flow", "setting": "[1]", "value": "no significant change"},
      {"measurement": "persistence of the decrease in renal blood flow", "setting": "[2]", "value": "approximately 15 minutes"},
      {"measurement": "decrease in renal blood flow", "setting": "[2]; at 1 minute", "value": 40.27, "unit": "%"},
      {"measurement": "decrease in renal blood flow", "setting": "[2]; at 5 minutes", "value": 50.10, "unit": "%"},
      {"measurement": "decrease in renal blood flow", "setting": "[2]; at 10 minutes", "value": 26.33, "unit": "%"},
      {"measurement": "decrease in mean arterial pressure", "setting": "[3]; at 0.2 minute", "value": 43.16, "unit": "%"},
      {"measurement": "decrease in mean arterial pressure", "setting": "[3]; at 0.5 minute", "value": 37.80, "unit": "%"},
      {"measurement": "decrease in mean arterial pressure", "setting": "[3]; at 1 minute", "value": 19.30, "unit": "%"},
      {"measurement": "increase in mean arterial pressure (subsequent hypertension)", "setting": "[3]; at 5 minutes", "value": 12.72, "unit": "%"},
      {"measurement": "increase in mean arterial pressure (subsequent hypertension)", "setting": "[3]; at 10 minutes", "value": 25.56, "unit": "%"},
      {"measurement": "increase in mean arterial pressure (subsequent hypertension)", "setting": "[3]; at 15 minutes", "value": 28.49, "unit": "%"},
      {"measurement": "effect on heart rate (Table 1)", "setting": "[4]", "value": "No significant alteration"},
      {"measurement": "effect on arterial blood gases (text to Table 2)", "setting": "[5]", "value": "Neither IRL-1620 nor ET-1 significantly affected blood gases"},
      {"measurement": "arterial blood pCO2", "setting": "[5]; [6]", "value": "34 ± 3"},
      {"measurement": "arterial blood pH", "setting": "[5]; [6]", "value": "7.32 ± 0.01"},
      {"measurement": "arterial blood pO2", "setting": "[5]; [6]", "value": "118 ± 4"},
      {"measurement": "arterial blood pCO2", "setting": "[5]; time 60 min", "value": "40 ± 4"},
      {"measurement": "arterial blood pH", "setting": "[5]; time 60 min", "value": "7.29 ± 0.01"},
      {"measurement": "arterial blood pO2", "setting": "[5]; time 60 min", "value": "110 ± 2"},
      {"measurement": "arterial blood pCO2", "setting": "[5]; time 120 min", "value": "38 ± 4"},
      {"measurement": "arterial blood pH", "setting": "[5]; time 120 min", "value": "7.27 ± 0.01"},
      {"measurement": "arterial blood pO2", "setting": "[5]; time 120 min", "value": "116 ± 5"}
    ]}
  ]
}
